{"source": "patent US20070197432A1", "about": "“Peptides for preventing, diagnosing and treating animal and/or human leptospirosis” (priority 2002, published 2007)", "key": {"[1]": {"test_system": "Leptospira interrogans sl serovar canicola", "assay": "Trial 1: gerbils immunized with PP-KLH, 10^−2.5 canicola challenge", "type": "in vivo, gerbil", "method": "An immunization/challenge protocol was carried out in order to evaluate the protection that can be provided by the PP peptide (SEQ ID No. 1) coupled to the KLH protein.\n(§1) This construct is administered subcutaneously without adjuvant, with PBS as a negative control (batch 2).\nBatch 1: 10 gerbils, 2 injections of 30 μg of PP-KLH in 300 μl, subcutaneously.\nBatch 2: 10 gerbils, 2 injections of PBS in 300 μl.\nThe two injections in a volume of 300 μl were administered subcutaneously, two weeks apart. A challenge by intraperitoneal injection of 0.5 ml of a canicola culture with a titer of 90 to 100 TU (turbidimetry) diluted to 10^−2.5 was administered two weeks after the second injection. • Antigenic response: Monitoring by ELISA of the immune response of the gerbils against the PP peptide"}, "[2]": {"test_system": "Leptospira interrogans sl serovar canicola", "assay": "Dogs immunized with PP-KLH, canicola challenge: cultures of plasma, urine and kidney samples", "type": "in vivo, dog", "method": "(§2) The animals are given a challenge at a rate of one virulent culture of 4 to 6 days. For an immunized batch and a control batch, each animal received, in each eye, 0.3 ml of the culture having a titer of 120 TU (i.e. 2×10^8 leptospires per ml) and, intraperitoneally, 4 ml of the same culture diluted ten-fold.\n(§3) The presence of leptospires was studied jointly by PCR (PCR specific for pathogenic leptospires) and by culturing, in the urine at D0, D10, D14, D18, D25 and D41 and in the kidney samples from each animal at the end of the trial at […].\n(§4) Moreover, the bacteriological results were quantified through the setting up of a coefficient: • by immediate culturing. A single live leptospire can give a positive culture. A relative estimation of the bacterial concentration is expressed by means of a coefficient of 3 when a culture has developed in the third serial dilution prepared from the sample. • by PCR on frozen samples. […] A coefficient of 1 was assigned to a PCR with a weak signal and a coefficient of 2 to a strongly positive PCR."}, "[3]": {"assay": "Dogs immunized with PP-KLH, immunization phase (tolerance, weight)", "type": "in vivo, dog", "method": "An immunization/challenge protocol was carried out in order to evaluate the protection that can be provided by the PP peptide (SEQ ID No. 1) NH2-coupled to the KLH carrier protein (FIG. 14).\nas §1\nBatch 1: 6 SPF dogs, 2 injections of 250 μg of PP-KLH in 1 ml subcutaneously.\nBatch 2: 6 SPF dogs, control.\nThe two injections were administered subcutaneously, […].\nThe immunization phase was carried out from D-39 to D-1, (D0 being the day of challenge), with the first injection on D-35 and second on D-18.\nDuring this phase, the weight was measured on D-39, D-35, D-28, and D-7 (FIG. 15)."}, "[4]": {"test_system": "Leptospira interrogans sl serovar canicola", "assay": "Dogs immunized with PP-KLH, canicola challenge: clinical, hematological and biochemical parameters", "type": "in vivo, dog", "settings": "at D4"}, "[5]": {"test_system": "Leptospira interrogans sl serovar canicola", "assay": "Dogs immunized with PP-KLH, canicola challenge: PCR on plasma, urine and kidney samples", "type": "in vivo, dog", "method": "as §2, §3, §4"}, "[6]": {"test_system": "Leptospira interrogans sl serovar canicola", "assay": "Trial 2: gerbils immunized with PP-KLH or PP, 10^−2 canicola challenge", "type": "in vivo, gerbil", "set-up": "Mortality rate / Survival rate: unit not given here", "method": "An immunization/challenge trial was carried out in order to evaluate the protection that can be provided by the PP peptide (SEQ ID No. 1) coupled or not coupled to the KLH protein.\nThis construct is administered subcutaneously without adjuvant, and PBS is administered by the same route as the negative control (batch 3). • Batch 1: 12 gerbils, 2 injections of 30 μg of PP-KLH in 300 μl. • Batch 2: 12 gerbils, 2 injections of 30 μg of PP in 300 μl. • Batch 3: 15 gerbils, 2 injections of PBS in 300 A1.\nThe two injections in a volume of 300 μl were administered subcutaneously, two weeks apart. A challenge by intraperitoneal injection of 0.5 ml of a serovar canicola leptospiral culture with a titer of 90 to 100 TU (turbidimetry) diluted to 10^−2 was administered three weeks after the second injection."}, "[7]": {"settings": "Accumulation of the two trials, survival"}}, "note": "No end group written: not given here.", "data": [{"substance": "PP-KLH: PP peptide with cysteine added at the N-terminal position, coupled via sulfo-MBS to KLH carrier protein (keyhole limpet hemocyanin) (KAKPVQKLDDDDDGDDTYKEERHNK; not fully specified (N-terminus))", "values": [{"measurement": "Mortality rate", "setting": "[1]; 10^−2.5 canicola challenge", "value": "6/10"}, {"measurement": "Survival rate", "setting": "[1]; 10^−2.5 canicola challenge", "value": "4/10"}, {"measurement": "gerbils alive", "setting": "[1]; 10^−2.5 canicola challenge, D4", "value": 10}, {"measurement": "gerbils alive", "setting": "[1]; 10^−2.5 canicola challenge, D5", "value": 10}, {"measurement": "gerbils alive", "setting": "[1]; 10^−2.5 canicola challenge, D6", "value": 7}, {"measurement": "gerbils alive", "setting": "[1]; 10^−2.5 canicola challenge, D7", "value": 5}, {"measurement": "gerbils alive", "setting": "[1]; 10^−2.5 canicola challenge, D8", "value": 4}, {"measurement": "gerbils alive", "setting": "[1]; 10^−2.5 canicola challenge, D9", "value": 4}, {"measurement": "gerbils alive", "setting": "[1]; 10^−2.5 canicola challenge, D10", "value": 4}, {"measurement": "gerbils alive", "setting": "[1]; 10^−2.5 canicola challenge, D11", "value": 4}, {"measurement": "gerbils alive", "setting": "[1]; 10^−2.5 canicola challenge, D30", "value": 4}, {"measurement": "gerbils alive", "setting": "[1]; 10^−2.5 canicola challenge, before challenge", "value": 10}, {"measurement": "gerbils alive", "setting": "[1]; 10^−2.5 canicola challenge, day of challenge", "value": 10}, {"measurement": "Survival rate", "setting": "[1]; 10^−2.5 canicola challenge, listed as PP peptide coupled to the KLH protein", "value": "4 of the 10"}, {"measurement": "p, log-rank test versus control", "setting": "[1]; Experiment 1, survival", "value": "<7.10^−2"}, {"measurement": "positive cultures/dogs", "setting": "[2]; Plasma, D0", "value": "0/6"}, {"measurement": "positive cultures/dogs", "setting": "[2]; Plasma, D3", "value": "6/6"}, {"measurement": "positive cultures/dogs", "setting": "[2]; Plasma, D7", "value": "0/6"}, {"measurement": "positive cultures/dogs", "setting": "[2]; Urine, D14", "value": "2/6"}, {"measurement": "positive cultures/dogs", "setting": "[2]; Urine, D18", "value": "3/6"}, {"measurement": "positive cultures/dogs", "setting": "[2]; Urine, D25", "value": "4/6"}, {"measurement": "renal carrier status at the time of euthanasia", "setting": "[2]; detected both by culturing and by PCR, both groups", "value": "renal carriers"}, {"measurement": "excretion of leptospires in the urine", "setting": "[2]; immunized versus control dogs, cultures and PCRs", "value": "becomes apparent later, or at a lower level"}, {"measurement": "tolerance in immunization phase", "setting": "[3]; SPF dogs, 2 s.c. injections of 250 μg without adjuvant", "value": "complete tolerance"}, {"measurement": "p, evolution of mean increase in weights, control versus immunized dogs (not significantly different)", "setting": "[3]; between D-35 and D-7", "value": 0.8509}, {"measurement": "p, monocyte depletion observed only in the controls", "setting": "[4]", "value": 0.05}, {"measurement": "p, transient leukopenia greater in control than in immunized dogs", "setting": "[4]", "value": "< 0.05"}, {"measurement": "lymphopenia", "setting": "[4]; significant in the controls", "value": "not noted at all"}, {"measurement": "positive PCR/dogs", "setting": "[5]; Kidneys, D41", "value": "1/6"}, {"measurement": "positive PCR/dogs", "setting": "[5]; Plasma, D0", "value": "0/6"}, {"measurement": "positive PCR/dogs", "setting": "[5]; Plasma, D3", "value": "6/6"}, {"measurement": "positive PCR/dogs", "setting": "[5]; Plasma, D7", "value": "0/6"}, {"measurement": "positive PCR/dogs", "setting": "[5]; Urine, D14", "value": "2/6"}, {"measurement": "positive PCR/dogs", "setting": "[5]; Urine, D18", "value": "1/6"}, {"measurement": "positive PCR/dogs", "setting": "[5]; Urine, D25", "value": "3/6"}, {"measurement": "positive PCR/dogs", "setting": "[5]; Urine, D41", "value": "4/6"}, {"measurement": "Mortality rate", "setting": "[6]; 10^−2 canicola challenge", "value": 8.3}, {"measurement": "Survival rate", "setting": "[6]; 10^−2 canicola challenge", "value": 91.6}, {"measurement": "mortality in the group (dead/number)", "setting": "[6]; 10^−2 canicola challenge", "value": "1/12"}, {"measurement": "gerbils at challenge", "setting": "[6]; 10^−2 canicola challenge, D0", "value": 12}, {"measurement": "mortality of gerbils (dead/number)", "setting": "[6]; 10^−2 canicola challenge, D4", "value": "0/12"}, {"measurement": "mortality of gerbils (dead/number)", "setting": "[6]; 10^−2 canicola challenge, D5", "value": "0/12"}, {"measurement": "mortality of gerbils (dead/number)", "setting": "[6]; 10^−2 canicola challenge, D6", "value": "0/12"}, {"measurement": "mortality of gerbils (dead/number)", "setting": "[6]; 10^−2 canicola challenge, D7", "value": "0/12"}, {"measurement": "mortality of gerbils (dead/number)", "setting": "[6]; 10^−2 canicola challenge, D8", "value": "0/12"}, {"measurement": "mortality of gerbils (dead/number)", "setting": "[6]; 10^−2 canicola challenge, D9", "value": "1/12"}, {"measurement": "mortality of gerbils (dead/number)", "setting": "[6]; 10^−2 canicola challenge, D10", "value": "0/11"}, {"measurement": "mortality of gerbils (dead/number)", "setting": "[6]; 10^−2 canicola challenge, D11", "value": "0/11"}, {"measurement": "mortality of gerbils (dead/number)", "setting": "[6]; 10^−2 canicola challenge, D12", "value": "0/11"}, {"measurement": "mortality of gerbils (dead/number)", "setting": "[6]; 10^−2 canicola challenge, D13", "value": "0/11"}, {"measurement": "mortality of gerbils (dead/number)", "setting": "[6]; 10^−2 canicola challenge, D14", "value": "0/11"}, {"measurement": "mortality of gerbils (dead/number)", "setting": "[6]; 10^−2 canicola challenge, D15", "value": "0/11"}, {"measurement": "mortality of gerbils (dead/number)", "setting": "[6]; 10^−2 canicola challenge, D16", "value": "0/11"}, {"measurement": "mortality of gerbils (dead/number)", "setting": "[6]; 10^−2 canicola challenge, D17", "value": "0/11"}, {"measurement": "mortality of gerbils (dead/number)", "setting": "[6]; 10^−2 canicola challenge, D28", "value": "0/11"}, {"measurement": "p, log-rank test versus control", "setting": "[6]; [7]", "value": "<2.10^−3"}, {"measurement": "χ^2, log-rank test versus control", "setting": "[6]; [7]", "value": 10.1}, {"measurement": "p, log-rank test versus control", "setting": "[6]; Experiment 2, survival", "value": "<1.10^−2"}, {"measurement": "χ^2, log-rank test versus control", "setting": "[6]; Experiment 2, survival", "value": 6.84}]}]}
